For one experiment, the target named is wild type FGFR-4 (Homo sapiens (Human), UniProt P22455). The experiment is described as follows: FGFR-4 wild type assay at Km (Caliper electrophoretic mobility shift). The class given is biochemical. The settings on record: for Ratio FGFR1/FGFR4: [IC50 for FGFR1]/[IC50 for FGFR4]; for pIC50: 400 uM ATP, 90 minutes, 25 C, read-out: FGFR4 IC50. On the procedure: (§1) In order to assess the activity of chemical compounds against the relevant kinase of interest, the Caliper LifeSciences electrophoretic mobility shift technology platform is utilized. Fluorescently labeled substrate peptide is incubated in the presence dosed levels of compounds, a set concentration of kinase and of ATP, so that a reflective proportion of the peptide is phosphorylated. At the end of the reaction, the mix of phosphorylated (product) and non-phosphorylated (substrate) peptides are passed through the microfluidic system of the Caliper LabChip® EZ Reader II, under an applied potential difference. The presence of the phosphate group on the product peptide provides a difference in mass and charge between the product peptide and the substrate peptide, resulting in a separation of the substrate and product pools in the sample. As the pools pass the LEDS within the instrument, these pools are detected and resolved as separate peaks. The ratio between these peaks therefore reflects the activity of the chemical matter at that concentration in that well, under those conditions.
wild type FGFR-4, sequence (P22455 22-802): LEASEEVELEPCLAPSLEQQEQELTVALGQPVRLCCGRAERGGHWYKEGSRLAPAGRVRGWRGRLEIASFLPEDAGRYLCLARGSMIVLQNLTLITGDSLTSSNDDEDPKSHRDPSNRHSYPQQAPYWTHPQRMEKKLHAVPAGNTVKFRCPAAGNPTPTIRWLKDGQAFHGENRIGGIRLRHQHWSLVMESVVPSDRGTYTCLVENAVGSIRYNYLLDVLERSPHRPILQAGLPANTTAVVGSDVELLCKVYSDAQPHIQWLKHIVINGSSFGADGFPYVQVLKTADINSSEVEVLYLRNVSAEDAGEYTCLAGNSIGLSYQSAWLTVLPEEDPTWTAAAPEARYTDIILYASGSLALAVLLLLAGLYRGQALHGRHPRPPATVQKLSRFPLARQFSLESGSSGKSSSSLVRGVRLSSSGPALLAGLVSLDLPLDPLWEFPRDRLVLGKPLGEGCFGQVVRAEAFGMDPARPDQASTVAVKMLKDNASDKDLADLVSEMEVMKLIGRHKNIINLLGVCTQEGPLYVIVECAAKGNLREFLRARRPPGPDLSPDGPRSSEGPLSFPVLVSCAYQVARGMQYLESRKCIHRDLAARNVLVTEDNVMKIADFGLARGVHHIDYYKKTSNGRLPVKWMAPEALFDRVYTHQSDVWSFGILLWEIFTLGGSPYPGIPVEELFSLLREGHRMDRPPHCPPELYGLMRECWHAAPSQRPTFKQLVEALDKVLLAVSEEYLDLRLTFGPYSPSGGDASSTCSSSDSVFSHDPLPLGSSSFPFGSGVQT
The reaction was stopped by the addition of 70 ul of Stop buffer (100 mM HEPES pH 7.5, 0.015% Brij 35, 35 mM EDTA and 0.2% of Coating Reagent 3 (Caliper Lifesciences)). The plate was then read on a Caliper LabChip® EZ Reader II (protocol settings: −1.9 psi, upstream voltage −700, downstream voltage −3000, post sample sip 35 s).

The target in another experiment is wild type FGFR-1 (Homo sapiens (Human), UniProt P11362). Kind of experiment: FGFR-1 wild type assay at Km (Caliper electrophoretic mobility shift). The class given is biochemical. The settings on record: 400 uM ATP, 90 minutes, 25 C; read-out: FGFR1 IC50. The procedure: as §1
wild type FGFR-1, sequence (P11362 22-822): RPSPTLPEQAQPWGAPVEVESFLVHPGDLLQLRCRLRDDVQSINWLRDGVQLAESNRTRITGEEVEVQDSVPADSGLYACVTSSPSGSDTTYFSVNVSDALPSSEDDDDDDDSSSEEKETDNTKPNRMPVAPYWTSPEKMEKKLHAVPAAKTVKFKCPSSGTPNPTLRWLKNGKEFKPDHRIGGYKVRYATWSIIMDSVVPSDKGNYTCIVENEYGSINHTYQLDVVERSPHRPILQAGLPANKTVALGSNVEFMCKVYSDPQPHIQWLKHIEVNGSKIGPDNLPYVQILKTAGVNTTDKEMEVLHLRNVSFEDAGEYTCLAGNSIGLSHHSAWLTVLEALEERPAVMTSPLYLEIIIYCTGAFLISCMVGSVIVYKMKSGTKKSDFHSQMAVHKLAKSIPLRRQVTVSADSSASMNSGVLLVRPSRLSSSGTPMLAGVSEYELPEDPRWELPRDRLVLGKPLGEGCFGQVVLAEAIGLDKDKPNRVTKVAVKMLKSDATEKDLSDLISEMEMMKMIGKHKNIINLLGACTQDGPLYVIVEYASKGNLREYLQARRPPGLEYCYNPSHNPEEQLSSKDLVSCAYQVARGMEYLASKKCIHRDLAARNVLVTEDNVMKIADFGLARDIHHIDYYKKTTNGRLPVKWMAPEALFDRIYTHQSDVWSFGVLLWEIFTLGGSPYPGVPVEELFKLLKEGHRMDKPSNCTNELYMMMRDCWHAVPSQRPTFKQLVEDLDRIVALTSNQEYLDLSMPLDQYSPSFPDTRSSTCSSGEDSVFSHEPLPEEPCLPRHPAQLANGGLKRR
The reaction was stopped by the addition of 70 ul of Stop buffer (100 mM HEPES pH 7.5, 0.015% Brij 35, 35 mM EDTA and 0.2% of Coating Reagent 3 (Caliper Lifesciences)). The plate was then read on a Caliper EZReader 2 (protocol settings: −1.9 psi, upstream voltage −700, downstream voltage −3000, post sample sip 35 s).

pIC50: −log10 of the molar value.

`C=CC(=O)N(C)c1ncc2cc(-c3c(Cl)cccc3Cl)ccc2n1` [COMPOUND 2]: the “Ratio FGFR1/FGFR4” value at wild type FGFR-4 is “D (the ratio is ≥50 and <100)”. Further, the pIC50 on wild type FGFR-1 was under 6.00.
In the case of `C=CC(=O)Nc1cccc(C)c1Nc1ncc2cc(-c3cc(OC)cc(OC)c3)c(=O)n(C)c2n1` [COMPOUND 19], the pIC50 at wild type FGFR-1 was under 6.00.
In the case of `C=CC(=O)N(C)c1ncc2cc(-c3cc(OC)cc(OC)c3)ccc2n1` [COMPOUND 1], the pIC50 at wild type FGFR-4 was 6.00 to 7.00; at wild type FGFR-1 it was under 6.00. Besides, the “Ratio FGFR1/FGFR4” value at wild type FGFR-4 was “C (the ratio is ≥100 and <200)”.
On to `C=CC(=O)Nc1ccc(F)c(F)c1Nc1ncc2cc(-c3c(Cl)c(OC)cc(OC)c3Cl)ccc2n1` [COMPOUND 37], for which, on wild type FGFR-4, the pIC50 was over 8.00; the “Ratio FGFR1/FGFR4” value was “C (the ratio is ≥100 and <200)”.
As for `C=CC(=O)Nc1cc(F)cc(C)c1Nc1ncc2cc(-c3c(Cl)c(OC)cc(OC)c3Cl)ccc2n1` [COMPOUND 32], on wild type FGFR-4, the pIC50 is over 8.00; the “Ratio FGFR1/FGFR4” value is “C (the ratio is ≥100 and <200)”. In addition, the pIC50 on wild type FGFR-1 was under 6.00.
Consider `C=CC(=O)Nc1ccccc1Nc1cc2nc(NC(=O)NC(C)(C)C)c(-c3cc(OC)cc(OC)c3)cc2cn1` [COMPOUND 44], for which the “Ratio FGFR1/FGFR4” value at wild type FGFR-4 is “E (the ratio is >10 and <50)”. Besides, the pIC50 on wild type FGFR-1 is under 6.00.
In the case of `C=CC(=O)Nc1cccc(C)c1Nc1ncc2c(n1)N(C)C(=O)N(c1c(Cl)c(OC)cc(OC)c1Cl)C2` [COMPOUND 48, N-(2-((6-(2,6-dichloro-3,5-dimethoxyphenyl)-8-methyl-7-oxo-5,6,7,8-tetrahydropyrimido[4,5-d]pyrimidin-2-yl)amino)-3-methylphenyl)acrylamide], at wild type FGFR-4, the pIC50 is over 8.00; the “Ratio FGFR1/FGFR4” value is “E (the ratio is >10 and <50)”.
Regarding `C=CC(=O)Nc1ccccc1Nc1ncc2cc(-c3cc(OC)cc(OC)c3)c(=O)n(C)c2n1` [COMPOUND 16], the pIC50 on wild type FGFR-1 was under 6.00.
In the case of `C=CC(=O)Nc1cccc(F)c1Nc1ncc2cc(-c3c(Cl)c(OC)cc(OC)c3Cl)cc(OC)c2n1` [COMPOUND 47], at wild type FGFR-4, the pIC50 is over 8.00; the “Ratio FGFR1/FGFR4” value was “B (the ratio is ≥200 and <500)”.
With `C=CC(=O)Nc1ccccc1-c1ccn2c(-c3cccc(NC(=O)NCC(F)(F)F)c3)cnc2c1` [COMPOUND 21, N-(2-(3-(3-(3-(2,2,2-trifluoroethyl)ureido)phenyl)imidazo[1,2-a]pyridin-7-yl)phenyl)acrylamide], the pIC50 at wild type FGFR-1 was under 6.00.
Same read-out and setting: next, `C=CC(=O)Nc1ccccc1Nc1ncc2cc(-c3c(Cl)c(OC)cc(OC)c3Cl)c(=O)n(C)c2c1C` [COMPOUND 40, N-(2-((3-(2,6-dichloro-3,5-dimethoxyphenyl)-1,8-dimethyl-2-oxo-1,2-dihydro-1,6-naphthyridin-7-yl)amino)phenyl)acrylamide]: under 6.00.
As to `C=CC(=O)Nc1cccc(C)c1Nc1ncc2cc(-c3c(Cl)cccc3Cl)c(=O)n(C)c2n1` [COMPOUND 22], the “Ratio FGFR1/FGFR4” value on wild type FGFR-4 was “B (the ratio is ≥200 and <500)”. Besides, the pIC50 at wild type FGFR-1 was under 6.00.
As to `C=CC(=O)Nc1cccc(C)c1Nc1ncc(C#Cc2c(Cl)c(OC)cc(OC)c2Cl)cn1` [COMPOUND 24, N-(2-((5-((2,6-dichloro-3,5-dimethoxyphenyl)ethynyl)pyrimidin-2-yl)amino)-3-methylphenyl)acrylamide], the pIC50 at wild type FGFR-1 is under 6.00.
As for `C=CC(=O)Nc1cccc(C)c1Nc1ncc2cc(-c3c(Cl)c(OC)cc(OC)c3Cl)c(OC)cc2n1` [COMPOUND 42, N-(2-((6-(2,6-dichloro-3,5-dimethoxyphenyl)-7-methoxyquinazolin-2-yl)amino)-3-methylphenyl)acrylamide], on wild type FGFR-4, the pIC50 was over 8.00 and the “Ratio FGFR1/FGFR4” value is “F (the ratio of [IC50 for FGFR1]/[IC50 for FGFR4] is less than 10)”.
Turning to `C=CC(=O)N(C)c1ncc2c(n1)N(C)C(=O)N(c1c(Cl)c(OC)cc(OC)c1Cl)C2` [COMPOUND 14], at wild type FGFR-4, the “Ratio FGFR1/FGFR4” value was “F (the ratio of [IC50 for FGFR1]/[IC50 for FGFR4] is less than 10)”.
As for `C=CC(=O)Nc1cc(F)cc(F)c1Nc1ncc2cc(-c3c(Cl)c(OC)cc(OC)c3Cl)ccc2n1` [COMPOUND 36], the “Ratio FGFR1/FGFR4” value at wild type FGFR-4 is “B (the ratio is ≥200 and <500)”. Moreover, the pIC50 at wild type FGFR-1 was under 6.00.
Turning to `C=CC(=O)Nc1cccc(C)c1Oc1ncc2cc(-c3c(Cl)c(OC)cc(OC)c3Cl)ccc2n1` [COMPOUND 25A], the “Ratio FGFR1/FGFR4” value on wild type FGFR-4 is “D (the ratio is ≥50 and <100)”. In addition, the pIC50 at wild type FGFR-1 was under 6.00.
Consider `C=CC(=O)Nc1cccc(C)c1Nc1ncc2cc(-c3c(Cl)ccc(OC)c3F)ccc2n1` [COMPOUND 17A], for which, on wild type FGFR-4, the “Ratio FGFR1/FGFR4” value is “E (the ratio is >10 and <50)”. In addition, the pIC50 at wild type FGFR-1 is under 6.00.
Turning to `C=CC(=O)Nc1cccc(F)c1Nc1ncc2cc(-c3c(Cl)c(OC)cc(OC)c3Cl)ccc2n1` [COMPOUND 51], on wild type FGFR-4, the pIC50 is 7.00 to 8.00 and the “Ratio FGFR1/FGFR4” value was “F (the ratio of [IC50 for FGFR1]/[IC50 for FGFR4] is less than 10)”. Besides, the pIC50 on wild type FGFR-1 is under 6.00.
As to `C=CC(=O)Nc1ccccc1Nc1ncc(C)c(N2CCN(C(=O)Nc3ccc(C#N)cc3)CC2)n1` [COMPOUND 23], the pIC50 is 6.00 to 7.00 at wild type FGFR-4 and under 6.00 at wild type FGFR-1. For the same compound, the “Ratio FGFR1/FGFR4” value on wild type FGFR-4 is on record as “A (the ratio is >500)”.
Consider `C=CC(=O)Nc1cccc(Cl)c1Nc1ncc2cc(-c3cc(C(N)=O)ccc3C)ccc2n1` [COMPOUND 17], for which, on wild type FGFR-4, the “Ratio FGFR1/FGFR4” value is “B (the ratio is ≥200 and <500)”. Besides, the pIC50 on wild type FGFR-1 was under 6.00.
Take `C=CC(=O)Nc1ccccc1Nc1ncc(Cl)c(N2CCN(C(=O)Nc3cccc(C(F)(F)F)c3)CC2)n1` [COMPOUND 50, 4-(2-((2-acrylamidophenyl)amino)-5-chloropyrimidin-4-yl)-N-(3-(trifluoromethyl)phenyl)piperazine-1-carboxamide]: the pIC50 at wild type FGFR-1 was under 6.00.
In the case of `C=CC(=O)N(C)c1ncc2cc(-c3c(Cl)c(OC)cc(OC)c3Cl)ccc2n1` [COMPOUND 7], on wild type FGFR-4, the pIC50 is over 8.00 and the “Ratio FGFR1/FGFR4” value is reported as “A (the ratio is >500)”. Also, the pIC50 at wild type FGFR-1 was under 6.00.
For the compound `C=CC(=O)Nc1cccc(C)c1Nc1ncc2cc(-c3cc(OC)cc(OC)c3)cnc2n1` [COMPOUND 10, N-(2-((6-(3,5-dimethoxyphenyl)pyrido[2,3-d]pyrimidin-2-yl)amino)-3-methylphenyl)acrylamide], on wild type FGFR-4, the pIC50 was under 6.00; the “Ratio FGFR1/FGFR4” value is “E (the ratio is >10 and <50)”. In addition, at wild type FGFR-1, the pIC50 is under 6.00.
For `C=CC(=O)Nc1cccc(C)c1Nc1ncc2cc(-c3cc(C(N)=O)ccc3F)ccc2n1` [COMPOUND 9], on wild type FGFR-4, the “Ratio FGFR1/FGFR4” value was “D (the ratio is ≥50 and <100)”. The pIC50 at wild type FGFR-1 was under 6.00.
Regarding `C=CC(=O)N(C)c1ncc2c(n1)N(C)C(=O)N(c1cc(OC)cc(OC)c1)C2` [COMPOUND 5], the “Ratio FGFR1/FGFR4” value at wild type FGFR-4 is on record as “A (the ratio is >500)”. The pIC50 at wild type FGFR-1 was under 6.00.
As for `C=CC(=O)N(C)c1ncc2cc(-c3c(Cl)c(OC)cc(OC)c3Cl)c(=O)n(C)c2n1` [COMPOUND 12], on wild type FGFR-4, the pIC50 is over 8.00; the “Ratio FGFR1/FGFR4” value was “D (the ratio is ≥50 and <100)”.
As to `C=CC(=O)Nc1ccccc1Nc1nccc(N2CCCC(NS(=O)(=O)CCC)C2)n1` (stereo not drawn) [COMPOUND 11, N-(2-((4-(3-(propylsulfonamido)piperidin-1-yl)pyrimidin-2-yl)amino)phenyl)acrylamide], on wild type FGFR-1, the pIC50 is under 6.00.
For the compound `C=CC(=O)Nc1cc(C)cc(C)c1Nc1ncc2cc(-c3c(Cl)c(OC)cc(OC)c3Cl)ccc2n1` [COMPOUND 28], on wild type FGFR-1, the pIC50 was under 6.00.
As for `C=CC(=O)Nc1cc(C(=O)NC2CCN(C)CC2)ccc1Nc1ncc(C)c(N2CCN(C(=O)Nc3ccc(C#N)cc3)CC2)n1` [COMPOUND 54, 4-(2-((2-acrylamido-4-((1-methylpiperidin-4-yl)carbamoyl)phenyl)amino)-5-methylpyrimidin-4-yl)-N-(4-cyanophenyl)piperazine-1-carboxamide], the pIC50 on wild type FGFR-1 was under 6.00.
In the case of `C=CC(=O)Nc1ccccc1Nc1cc2c(cn1)cc(-c1cc(OC)cc(OC)c1)c(=O)n2C` [COMPOUND 15], the “Ratio FGFR1/FGFR4” value at wild type FGFR-4 was “B (the ratio is ≥200 and <500)”. Also, the pIC50 at wild type FGFR-1 is under 6.00.
In the case of `C=CC(=O)Nc1cccc(C)c1Nc1ncc(C#Cc2cc(OC)cc(OC)c2)cn1` [COMPOUND 6, N-(2-((5-((3,5-dimethoxyphenyl)ethynyl)pyrimidin-2-yl)amino)-3-methylphenyl) acrylamide], the pIC50 at wild type FGFR-1 is under 6.00.
For the compound `C=CC(=O)Nc1cccc(C)c1Nc1ncc2cc(-c3c(Cl)cccc3Cl)ccc2n1` [COMPOUND 13], the “Ratio FGFR1/FGFR4” value on wild type FGFR-4 was “D (the ratio is ≥50 and <100)”. In addition, the pIC50 on wild type FGFR-1 was under 6.00.
For the compound `C=CC(=O)N(C)c1ncc2cc(-c3c(Cl)c(OC)cc(OC)c3Cl)cnc2n1` [COMPOUND 8], at wild type FGFR-4, the pIC50 is over 8.00; the “Ratio FGFR1/FGFR4” value is “E (the ratio is >10 and <50)”.
`C=CS(=O)(=O)Nc1cccc(C)c1Nc1ncc2cc(-c3c(Cl)c(OC)cc(OC)c3Cl)ccc2n1` [COMPOUND 49A]: the “Ratio FGFR1/FGFR4” value on wild type FGFR-4 is “E (the ratio is >10 and <50)”.
`C=CC(=O)Nc1cc(Cl)cc(C)c1Nc1ncc2cc(-c3c(Cl)c(OC)cc(OC)c3Cl)ccc2n1` [COMPOUND 49]: the “Ratio FGFR1/FGFR4” value at wild type FGFR-4 was “A (the ratio is >500)”. Besides, the pIC50 on wild type FGFR-1 is under 6.00.

Usually pIC50 stands for −log10 of the IC50, conventionally taken in molar units.

The record behind these values is patent US10196436B2, “Inhibitors of the fibroblast growth factor receptor” (BLUEPRINT MEDICINES CORPORATION, priority 2012, dated 2019).
